# Results: ChEMBL document CHEMBL1201862, “PubChem BioAssay data set” (2004)
#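 Each compound was tested at five concentrations against cells in 96-well plates for 48 hours. Here, GI50 denotes the concentration required for 50% inhibition of growth.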 The source made the active and inactive calls. Rule as the data show it: active = GI50 up to about 1.1 µM and inactive = higher.
# Experiments:
# Assay in all cases: NCI anticancer screen, dose series, 48 h
# 786-0 = system: 786-0
# A498 = system: A498
# A549 = system: A549
# BT-549 = system: BT-549
# CAKI-1 = system: CAKI-1
# CCRF-CEM = system: CCRF-CEM
# COLO 205 = system: COLO 205
# DU-145 = system: DU-145
# EKVX = system: EKVX
# HCC 2998 = system: HCC 2998
# HCT-116 = system: HCT-116
# HL-60 = system: HL-60
# HOP-62 = system: HOP-62
# HOP-92 = system: HOP-92
# HT-29 = system: HT-29
# Hs-578T = system: Hs-578T
# IGROV-1 = system: IGROV-1
# K562 = system: K562
# KM12 = system: KM12
# LOX IMVI = system: LOX IMVI
# M14 = system: M14
# MCF7 = system: MCF7
# MDA-MB-231 = system: MDA-MB-231
# MDA-MB-435 = system: MDA-MB-435
# MDA-N = system: MDA-N
# MOLT-4 = system: MOLT-4
# NCI-H226 = system: NCI-H226
# NCI-H522 = system: NCI-H522
# NCI/ADR-RES = system: NCI/ADR-RES
# OVCAR-3 = system: OVCAR-3
# OVCAR-5 = system: OVCAR-5
# PC-3 = system: PC-3
# RPMI-8226 = system: RPMI-8226
# RXF 393 = system: RXF 393
# SF-268 = system: SF-268
# SF-295 = system: SF-295
# SF-539 = system: SF-539
# SK-MEL-28 = system: SK-MEL-28
# SK-MEL-2 = system: SK-MEL-2
# SK-MEL-5 = system: SK-MEL-5
# SK-OV-3 = system: SK-OV-3
# SN12C = system: SN12C
# SNB-75 = system: SNB-75
# SW-620 = system: SW-620
# T47D = system: T47D
# TK-10 = system: TK-10
# U-251 = system: U-251
# UACC-257 = system: UACC-257
# UACC-62 = system: UACC-62
# ACHN = system: ACHN
# HCT-15 = system: HCT-15
# Malme-3M = system: Malme-3M
# NCI-H23 = system: NCI-H23
# OVCAR-4 = system: OVCAR-4
# OVCAR-8 = system: OVCAR-8
# SNB-19 = system: SNB-19
# UO-31 = system: UO-31
smiles,measurement,setting,value
CSCCC(NC(=O)C(Cc1c[nH]c2ccccc12)NC(=O)CCNC(=O)OC(C)(C)C)C(=O)NC(CC(=O)O)C(=O)NC(Cc1ccccc1)C(N)=O (stereo not given),GI50,786-0,> 50 µM (inactive)
same,GI50,A498,> 50 µM (inactive)
same,GI50,A549,> 50 µM (inactive)
same,GI50,BT-549,> 50 µM (inactive)
same,GI50,CAKI-1,> 50 µM (inactive)
same,GI50,CCRF-CEM,> 50 µM (inactive)
same,GI50,COLO 205,> 50 µM (inactive)
same,GI50,DU-145,> 50 µM (inactive)
same,GI50,EKVX,> 50 µM (inactive)
same,GI50,HCC 2998,> 50 µM (inactive)
same,GI50,HCT-116,> 50 µM (inactive)
same,GI50,HL-60,> 50 µM (inactive)
same,GI50,HOP-62,> 50 µM (inactive)
same,GI50,HOP-92,> 50 µM (inactive)
same,GI50,HT-29,> 50 µM (inactive)
same,GI50,Hs-578T,> 50 µM (inactive)
same,GI50,IGROV-1,> 50 µM (inactive)
same,GI50,K562,> 50 µM (inactive)
same,GI50,KM12,> 50 µM (inactive)
same,GI50,LOX IMVI,> 50 µM (inactive)
same,GI50,M14,> 50 µM (inactive)
same,GI50,MCF7,> 50 µM (inactive)
same,GI50,MDA-MB-231,> 50 µM (inactive)
same,GI50,MDA-MB-435,> 50 µM (inactive)
same,GI50,MDA-N,> 50 µM (inactive)
same,GI50,MOLT-4,> 50 µM (inactive)
same,GI50,NCI-H226,> 50 µM (inactive)
same,GI50,NCI-H522,> 50 µM (inactive)
same,GI50,NCI/ADR-RES,> 50 µM (inactive)
same,GI50,OVCAR-3,> 50 µM (inactive)
same,GI50,OVCAR-5,> 50 µM (inactive)
same,GI50,PC-3,> 50 µM (inactive)
same,GI50,RPMI-8226,> 50 µM (inactive)
same,GI50,RXF 393,> 50 µM (inactive)
same,GI50,SF-268,> 50 µM (inactive)
same,GI50,SF-295,> 50 µM (inactive)
same,GI50,SF-539,> 50 µM (inactive)
same,GI50,SK-MEL-28,> 50 µM (inactive)
same,GI50,SK-MEL-2,> 50 µM (inactive)
same,GI50,SK-MEL-5,> 50 µM (inactive)
same,GI50,SK-OV-3,> 50 µM (inactive)
same,GI50,SN12C,> 50 µM (inactive)
same,GI50,SNB-75,> 50 µM (inactive)
same,GI50,SW-620,> 50 µM (inactive)
same,GI50,T47D,> 50 µM (inactive)
same,GI50,TK-10,> 50 µM (inactive)
same,GI50,U-251,> 50 µM (inactive)
same,GI50,UACC-257,> 50 µM (inactive)
same,GI50,UACC-62,> 50 µM (inactive)
O=S(=O)(O)c1cccc2ccc(O)c(/N=N\c3ccc(S(=O)(=O)c4ccc(/N=N/c5c(O)ccc6cccc(S(=O)(=O)O)c56)cc4)cc3)c12,GI50,786-0,> 100 µM (inactive)
same,GI50,A549,> 100 µM (inactive)
same,GI50,ACHN,> 100 µM (inactive)
same,GI50,BT-549,> 100 µM (inactive)
same,GI50,CAKI-1,> 100 µM (inactive)
same,GI50,CCRF-CEM,> 100 µM (inactive)
same,GI50,COLO 205,> 100 µM (inactive)
same,GI50,DU-145,> 100 µM (inactive)
same,GI50,EKVX,> 100 µM (inactive)
same,GI50,HCT-116,> 100 µM (inactive)
same,GI50,HCT-15,> 100 µM
same,GI50,HL-60,< 0.01 µM (active)
same,GI50,HOP-62,> 100 µM (inactive)
same,GI50,HOP-92,> 100 µM (inactive)
same,GI50,HT-29,> 100 µM (inactive)
same,GI50,Hs-578T,> 100 µM (inactive)
same,GI50,IGROV-1,81.5 µM (inactive)
same,GI50,K562,50.4 µM (inactive)
same,GI50,KM12,67.3 µM (inactive)
same,GI50,M14,> 100 µM (inactive)
same,GI50,MDA-MB-231,> 100 µM (inactive)
same,GI50,MDA-MB-435,> 100 µM (inactive)
same,GI50,MDA-N,> 100 µM (inactive)
same,GI50,MOLT-4,> 100 µM (inactive)
same,GI50,Malme-3M,> 100 µM (inactive)
same,GI50,NCI-H226,> 100 µM (inactive)
same,GI50,NCI-H23,> 100 µM (inactive)
same,GI50,NCI-H522,> 100 µM (inactive)
same,GI50,NCI/ADR-RES,> 100 µM (inactive)
same,GI50,OVCAR-3,> 100 µM (inactive)
same,GI50,OVCAR-4,> 100 µM (inactive)
same,GI50,OVCAR-5,> 100 µM (inactive)
same,GI50,OVCAR-8,> 100 µM (inactive)
same,GI50,PC-3,> 100 µM (inactive)
same,GI50,RPMI-8226,> 100 µM (inactive)
same,GI50,RXF 393,> 100 µM (inactive)
same,GI50,SF-268,> 100 µM (inactive)
same,GI50,SF-295,> 100 µM (inactive)
same,GI50,SK-MEL-28,> 100 µM (inactive)
same,GI50,SK-MEL-2,> 100 µM (inactive)
same,GI50,SK-MEL-5,> 100 µM (inactive)
same,GI50,SK-OV-3,> 100 µM (inactive)
same,GI50,SN12C,> 100 µM (inactive)
same,GI50,SNB-19,> 100 µM (inactive)
same,GI50,SNB-75,65.5 µM (inactive)
same,GI50,SW-620,> 100 µM (inactive)
same,GI50,T47D,> 100 µM (inactive)
same,GI50,TK-10,> 100 µM (inactive)
same,GI50,U-251,> 100 µM (inactive)
same,GI50,UACC-257,> 100 µM (inactive)
same,GI50,UACC-62,> 100 µM (inactive)
same,GI50,UO-31,63.4 µM (inactive)
O=C(NCCCN1CCN(CCCNC(=O)Nc2cccc3ccccc23)CC1)Nc1cccc2ccccc12,GI50,786-0,18.9 µM (inactive)
same,GI50,A498,15.3 µM (inactive)
same,GI50,A549,17.7 µM (inactive)
same,GI50,ACHN,16.3 µM (inactive)
same,GI50,BT-549,13.2 µM (inactive)
same,GI50,CAKI-1,16.2 µM (inactive)
same,GI50,CCRF-CEM,22.2 µM (inactive)
same,GI50,COLO 205,15.7 µM (inactive)
same,GI50,DU-145,16.9 µM (inactive)
same,GI50,EKVX,9.82 µM (inactive)
same,GI50,HCC 2998,2.29 µM (inactive)
same,GI50,HCT-116,14.4 µM (inactive)
same,GI50,HCT-15,16.6 µM
same,GI50,HL-60,16.3 µM (inactive)
same,GI50,HOP-62,11.7 µM (inactive)
same,GI50,HOP-92,13.8 µM (inactive)
same,GI50,HT-29,16.8 µM (inactive)
same,GI50,Hs-578T,17.5 µM (inactive)
same,GI50,IGROV-1,17.3 µM (inactive)
same,GI50,K562,19.9 µM (inactive)
same,GI50,KM12,19.3 µM (inactive)
same,GI50,LOX IMVI,8.49 µM (inactive)
same,GI50,M14,16.3 µM (inactive)
same,GI50,MCF7,17.5 µM (inactive)
same,GI50,MDA-MB-231,2.25 µM (inactive)
same,GI50,MDA-MB-435,16.2 µM (inactive)
same,GI50,MDA-N,15.6 µM (inactive)
same,GI50,Malme-3M,3.15 µM (inactive)
same,GI50,NCI-H23,16.2 µM (inactive)
same,GI50,NCI-H522,15.8 µM (inactive)
same,GI50,NCI/ADR-RES,84.9 µM (inactive)
same,GI50,OVCAR-3,13.6 µM (inactive)
same,GI50,OVCAR-4,25.4 µM (inactive)
same,GI50,OVCAR-5,15.1 µM (inactive)
same,GI50,OVCAR-8,18.7 µM (inactive)
same,GI50,PC-3,9.93 µM (inactive)
same,GI50,RPMI-8226,17.3 µM (inactive)
same,GI50,RXF 393,11.1 µM (inactive)
same,GI50,SF-268,17.3 µM (inactive)
same,GI50,SF-295,13.9 µM (inactive)
same,GI50,SF-539,18 µM (inactive)
same,GI50,SK-MEL-28,14.4 µM (inactive)
same,GI50,SK-MEL-2,18.7 µM (inactive)
same,GI50,SK-MEL-5,16.6 µM (inactive)
same,GI50,SN12C,16.3 µM (inactive)
same,GI50,SNB-19,18.6 µM (inactive)
same,GI50,SNB-75,15.5 µM (inactive)
same,GI50,SW-620,8.32 µM (inactive)
same,GI50,T47D,13.2 µM (inactive)
same,GI50,TK-10,14 µM (inactive)
same,GI50,U-251,5.46 µM (inactive)
same,GI50,UACC-257,13.2 µM (inactive)
same,GI50,UACC-62,3.33 µM (inactive)
same,GI50,UO-31,16.6 µM (inactive)
